Source: PubChem BioAssay (NCI)
Several values for one entry are separate records, joined by “and”; a condition that tells them apart may be missing. Equal values may be shown once.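 Exposure lasted 48 hours, with cells grown in 96-well plates and compounds tested at five concentrations. GI50: concentration for 50% inhibition of growth. TGI is the concentration that stops growth completely.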

Key:
Test in all cases: NCI anticancer screen, dose series, 48 h
[1] = system: SF-539 CNS
[2] = system: SNB-75 CNS
[3] = system: EKVX NSCLC
[4] = system: M14 melanoma
[5] = system: A549 NSCLC
[6] = system: OVCAR-5 ovarian
[7] = system: UO-31 renal
[8] = system: SW-620 colon
[9] = system: T-47D breast
[10] = system: LOX IMVI melanoma

Row | SMILES | GI50 [1] [µM] | TGI [1] | GI50 [2] [µM] | TGI [2] | GI50 [3] | TGI [3] | GI50 [4] | TGI [4] [µM] | GI50 [5] [µM] | TGI [5] | GI50 [6] | TGI [6] | GI50 [7] | TGI [7] | GI50 [8] | TGI [8] | GI50 [9] | TGI [9] [µM] | GI50 [10] | TGI [10]
1 | COc1cccc2c1C(=O)c1c(O)c3c(c(O)c1C2=O)C[C@@](O)(C(=O)CO)C[C@@H]3OC1CC(OC(C)=O)C(OC(C)=O)C(C)O1 (stereo partly drawn) | 0.267 | 1.9 µM | 0.687 | 8.53 µM | 1.92 µM | 9.5 µM | 0.529 µM | 2.26 | 0.41 | 2.77 µM | 1.16 µM | 5 µM | 0.258 µM | 1.99 µM | 0.277 µM | 3.45 µM | 0.237 µM | 1.99 | 0.284 µM | > 20 µM
2 | CC(N)(Cc1c[nH]c2ccccc12)C(=O)O (stereo not drawn) | > 2500 | > 2500 µM | > 2500 | > 2500 µM | > 2500 µM | > 2500 µM | > 2500 µM | > 2500 | > 2500 | > 2500 µM | > 2500 µM | > 2500 µM | > 2500 µM | > 2500 µM | > 2500 µM | > 2500 µM | > 2500 µM | > 2500 | > 2500 µM | > 2500 µM
3 | COc1ccc(S(=O)(=O)NC2=NCCN2C(=S)SN2CCn3c2nsc3=S)cc1OC | 34.3 | > 100 µM | 12.7 | 46.4 µM | 50.1 µM | > 100 µM | 20.4 µM | 48.8 | 27.9 | > 100 µM | 20.8 µM | 40.4 µM | 35.8 µM | > 100 µM | 18.9 µM | > 100 µM | 15.3 µM | 35.3 | 16.8 µM | 37.8 µM
4 | CC(C)(C)OC(=O)N1CC(Cn2cc(C(F)(F)F)c3c(Cl)ncnc32)C1 | 11.3 | 24.6 µM | 4.99 | 18.1 µM | 2.63 µM | 10.2 µM | 1.72 µM | 3.38 | 14 | 28.2 µM | 20.5 µM | 57.5 µM | 2.71 µM | 10.8 µM | 3.3 µM | 10.6 µM | 5.51 µM | 27.1 | 1.75 µM | 3.27 µM
5 | S=c1nc[nH]c2nc[nH]c12 | 3.02 | > 100 µM and 587 µM and 255 µM |  | > 100 µM and 402 µM and > 621 µM | > 100 µM and 353 µM | > 100 µM and 741 µM and > 750 µM | 0.418 µM and 3.92 µM |  | 65.9 | > 100 µM and 714 µM and > 750 µM | 5.75 µM and > 32.3 µM | > 100 µM and 651 µM and > 750 µM | 4.1 µM and 5.55 µM | > 100 µM and 619 µM | 3.97 µM and 15.1 µM | > 100 µM and 692 µM and > 750 µM | 0.812 µM and 5.81 µM | > 627 | 0.321 µM and 3.01 µM | 41.4 µM and 111 µM and 192 µM
6 | O=C1c2ccc3c4c(ccc(c24)C(=O)N1CCCNCc1ccccc1)C(=O)N(CCCNCc1ccccc1)C3=O | 0.194 | 0.45 µM | 0.147 | 0.291 µM | 0.165 µM | 0.323 µM | 0.161 µM | 0.307 | 0.131 | 0.365 µM | 0.233 µM | 0.648 µM | 0.148 µM | 0.364 µM | 0.0758 µM | 0.326 µM | 0.192 µM | 0.429 | 0.135 µM | 0.363 µM
7 | COc1cc(/C=C2\CCCC3C2=Nc2ccccc2NC3c2cc(OC)c(OC)c(OC)c2)cc(OC)c1OC (stereo not drawn) | 3.9 | > 100 µM | 21.9 | > 100 µM | 7.45 µM | > 100 µM | 1.27 µM | 4.23 | 1.9 | 8.06 µM | 3.68 µM | 11.9 µM | 1.66 µM | 4.48 µM | 1.6 µM | 6.77 µM | 3.75 µM | 52.7 | 1.81 µM | 5.86 µM
8 | COc1ccc(N2CCN(CN3CCN(c4ccc(OC)cc4)C3)C2)cc1 | > 100 | > 100 µM | > 100 | > 100 µM | > 100 µM | > 100 µM | > 100 µM | > 100 | > 100 | > 100 µM | > 100 µM | > 100 µM | > 100 µM | > 100 µM | 28.2 µM | > 100 µM | > 100 µM | > 100 | 41.3 µM | > 100 µM
9 | COc1ccc2[nH]c(-c3ccccc3)c(C=C(C#N)C#N)c2c1 | 2.94 | 22 µM | 2.76 | 21.2 µM | 4.05 µM | > 100 µM | 2.29 µM | 44.5 | 6.97 | > 100 µM | 44.2 µM | > 100 µM | 6.43 µM | > 100 µM | 3.62 µM | > 100 µM | 2.29 µM | 9.14 | 4.88 µM | > 100 µM
10 | O=C(C[C@@]1(O)C(=O)Nc2c(Cl)ccc(Cl)c21)c1ccc(C2CC2)cc1 | 0.286 | 3.64 µM | 0.143 | 0.588 µM | 0.631 µM | 30.7 µM | 0.184 µM | 13.8 | 0.729 | 24 µM | 1.17 µM | 17.5 µM | 0.585 µM | 18.5 µM | 0.19 µM | 16.5 µM | 0.454 µM | 32.5 | 0.541 µM | 13.9 µM
11 | OC(COc1cccc2ccccc12)CN1CCN(c2ccc(Cl)cc2)CC1 (stereo not drawn) | 22.6 | 68.5 µM | 9.76 | 27.1 µM | 21.3 µM | > 100 µM | 64.8 µM | > 100 | 19.4 | > 100 µM | > 100 µM | > 100 µM | 15.5 µM | 36.1 µM | 17.9 µM | > 100 µM | 81.3 µM | > 100 | 26.3 µM | > 100 µM
12 | O=c1c2[nH]c3ccccc3c2nc2n1CCS2 | 85 | > 100 µM | 15.8 | 77.3 µM | 23.6 µM | > 100 µM | > 100 µM | > 100 | > 100 | > 100 µM | > 100 µM | > 100 µM | 47.2 µM | > 100 µM | > 100 µM | > 100 µM | > 100 µM | > 100 | 54.7 µM | > 100 µM
13 | COc1ccc2c(c1)CC[C@@H]1[C@@H]2CC[C@]2(C)c3[nH]ncc3C[C@@H]12 | 14.8 | 42 µM | 21.9 | > 50 µM | 16.3 µM | > 50 µM | 16.4 µM | > 50 | 15.2 | > 50 µM | 20.2 µM | > 50 µM | 19.6 µM | > 50 µM | 16.1 µM | > 50 µM | 10.9 µM | 33 | 10.8 µM | 33.3 µM
14 | O=[N+]([O-])c1cccc(/C=C/c2ccccn2)c1 | 26.6 | > 100 µM | 5.47 | 75.4 µM | 43.8 µM | > 100 µM | 52.1 µM | > 100 | 27.9 | > 100 µM | 49.7 µM | > 100 µM | 23.3 µM | > 100 µM | 5.95 µM | > 100 µM | 1.82 µM | > 100 | 10.6 µM | > 100 µM
15 | FC(F)(F)c1[nH]ncc1-c1nc2c(N3CCCCC3)cc3[nH]ncc3c2c2c1CCCC2 | 0.567 | 1.22 µM | 0.533 | 1.2 µM | 0.868 µM | 2.48 µM | 0.6 µM | 1.42 | 0.816 | > 12.5 µM | 1.04 µM | 3.61 µM | 0.873 µM | 3.01 µM | 0.556 µM | 2.67 µM | 0.756 µM | > 13.7 | 0.656 µM | 1.43 µM
